Results on 16 compounds are retold here after patent US20110201620A1, “2-(3-AMINOARYL) AMINO-4-ARYL-THIAZOLES AND THEIR USE AS C-KIT INHIBITORS” (AB SCIENCE, priority 2002, published 2011).

By melting point is commonly meant the temperature of the solid-liquid transition.

Data set [1] concerns GIST. As to conditions: 345 patients, 400 mg/day, cited from earlier work.
Data set [2] deals with advanced GIST. As to conditions: cited from earlier work.
In data set [3] the target is c-Kit gain-of-function mutant V559D (exon 11) (Homo sapiens, UniProt P10721, V559D). As to conditions: in vitro; cited from earlier work.

Take `Cc1ccc(NC(=O)Nc2ccccc2F)cc1Nc1nc(-c2cccnc2)cs1` [Compound 023, 1-(2-Fluoro-phenyl)-3-[4-methyl-3-(4-pyridin-3-yl-thiazol-2-ylamino)-phenyl]-urea]: the melting point lay within 203 to 206 °C.

For the compound `Cc1ccc(NC(=O)Nc2cccc(F)c2)cc1Nc1nc(-c2cccnc2)cs1` [Compound 025, 1-(3-Fluoro-phenyl)-3-[4-methyl-3-(4-pyridin-3-yl-thiazol-2-ylamino)-phenyl]-urea], the melting point lay in the range of 210 to 215 °C.

For the compound `Cc1ccc(NC(=O)Nc2ccc(C)c(Nc3nc(-c4cccnc4)cs3)c2)cc1` [Compound 026, 1-[4-Methyl-3-(4-pyridin-3-yl-thiazol-2-ylamino)-phenyl]-3-p-tolyl-urea], the melting point lay in the range of 238 to 240 °C.

In turn, `Cc1ccc(NC(=O)c2ccc(NS(=O)(=O)c3cccs3)cc2)cc1Nc1nc(-c2cccnc2)cs1` [Compound 044, N-[4-Methyl-3-(4-pyridin-3-yl-thiazol-2-ylamino)-phenyl]-4-(thiophene-2-sulfonylamino)-benzamide] displayed a melting point of 230 to 233 °C.

`Cc1ccc(NC(=O)c2cccc(F)c2)cc1Nc1nc(-c2cccnc2)cs1` [Compound 045, 3-Fluoro-N-[4-methyl-3-(4-pyridin-3-yl-thiazol-2-ylamino)-phenyl]-benzamide] yielded a melting point of 184 to 186 °C.

Compound `Cc1ccc(NC(=O)c2ccc(-c3ccncc3)cc2)cc1Nc1nc(-c2cccnc2)cs1` [Compound 046, N-[4-Methyl-3-(4-pyridin-3-yl-thiazol-2-ylamino)-phenyl]-4-pyridin-4-yl-benzamide] had a melting point of 254 to 256 °C.

With `Cc1ccc(NC(=O)c2ccc(N(C)C)cc2)cc1Nc1nc(-c2cccnc2)cs1` [Compound 047, 4-Dimethylamino-N-[4-methyl-3-(4-pyridin-3-yl-thiazol-2-ylamino)-phenyl]-benzamide], the melting point was 147 to 150 °C.

`Cc1ccc(F)c(C(=O)Nc2ccc(C)c(Nc3nc(-c4cccnc4)cs3)c2)c1` [Compound 048, 2-Fluoro-5-methyl-N-[4-methyl-3-(4-pyridin-3-yl-thiazol-2-ylamino)-phenyl]-benzamide] returned a melting point of 103 to 106 °C.

For `Cc1ccc(NC(=O)c2ccc(C(C)(C)C)cc2)cc1Nc1nc(-c2cccnc2)cs1` [Compound 049, 4-tert-Butyl-N-[4-methyl-3-(4-pyridin-3-yl-thiazol-2-ylamino)-phenyl]-benzamide], the melting point lay within 145 to 150 °C.

`Cc1ccc(NC(=O)c2cccc(OCCN3CCOCC3)c2)cc1Nc1nc(-c2cccnc2)cs1` [Compound 052, N-[4-Methyl-3-(4-pyridin-3-yl-thiazol-2-ylamino)-phenyl]-3-(2-morpholin-4-yl-ethoxy)-benzamide] gave a melting point of 75 to 80 °C.

`COc1cccc(C(=O)Nc2ccc(C)c(Nc3nc(-c4cccnc4)cs3)c2)c1` [Compound 059] showed a melting point of 76 to 79 °C.

`Cc1ccc(NC(=O)c2cccc(N(C)C)c2)cc1Nc1nc(-c2cccnc2)cs1` [Compound 088, 3-Dimethylamino-N-[4-methyl-3-(4-pyridin-3-yl-thiazol-2-ylamino)-phenyl]-benzamide] gave a melting point of 197 to 198 °C.

Take `Cc1ccc(NC(=O)c2cccc(N3CCOCC3)c2)cc1Nc1nc(-c2cccnc2)cs1` [Compound 090, N-[4-Methyl-3-(4-pyridin-3-yl-thiazol-2-ylamino)-phenyl]-3-morpholin-4-yl-benzamide]: the melting point was 247 to 248 °C.

Consider `Cc1ccc(NC(=O)CCCN2CCOCC2)cc1Nc1nc(-c2cccnc2)cs1` [Compound 096, N-[4-Methyl-3-(4-pyridin-3-yl-thiazol-2-ylamino)-phenyl]-4-morpholin-4-yl-butyramide], for which the melting point was 116 to 120 °C.

For the compound `Cc1ccc(NC(=O)c2ccc(CN3CCN(C)CC3)cc2)cc1Nc1nccc(-c2cccnc2)n1` [imatinib], in data set [1] (95% CI [16-21]), the “median PFS” value was 18 months. Further, in data set [1] (95% CI [36-47]), the “2-year PFS rate” value is 46%. In data set [1] (95% CI [47-62]), the “Median overall survival (OS)” value is 55 months. For the same compound, in data set [1] (95% CI [67-77]), the 2-year survival is on record as 72%. The 3-year survival in data set [1] is about 61%. The “2-year survival rate of patients with advanced GIST” value in data set [2] (after introduction of imatinib (pre-imatinib 25%)) is given as “about 70%”. Also, in data set [2] (in vivo), the “early resistance (progression within the first 6 months, no response), patients” value was 10-15%.

On to `CS(=O)(=O)O.CS(=O)(=O)O.Cc1ccc(NC(=O)c2ccc(CN3CCN(C)CC3)cc2)cc1Nc1nc(-c2cccnc2)cs1` [masitinib mesilate, 4-(4-methylpiperazin-1-ylmethyl)-N-[4-methyl-3-(4-pyridin-3ylthiazol-2-ylamino)phenyl]benzamide-mesylate methane sulfonic acid salt], for which the “inhibition of c-Kit mutant V559D (exon 11)” value in data set [3] is “potently inhibits”.
